From patent US20230212519A1, “METHOD FOR PURIFYING CARDIOMYOCYTES” (ORIZURU THERAPEUTICS, INC., priority 2020, published 2023)

System: embryoid body containing mixture of cardiomyocytes and non-cardiomyocytes
Experiment: Sarcomeric α-actinin-positive cell rate by flow cytometer after treatment of embryoid body with compound
Format: cell-based, human
Conditions: Experimental Example 4; clinical iPS cell line; embryoid body treated from day 20 for 4 days; FK-228 1-30 nM, Entinostat 0.1-10 μM
Description: On day 20, the embryoid body was recovered in a centrifugal tube, stood until a sediment of the embryoid body was formed, and the supernatant was aspirated while avoiding sucking the embryoid body. The medium was changed with a fresh 13 medium (same medium for myocardial differentiation as in Experimental Example 1), and divided into a 6-well plate with a medium amount of 3 mL/well so that an equal amount of the embryoid body would be placed in each well. Thereafter, an evaluation compound (1 nM to 10 μM) described in Table 1 or DMSO (0.1%) was added. […] It was centrifuged at 500 g for 1 min. The supernatant was removed, a solution of 500 μL of IMDM added with DNase 10 μg/mL and Liberase 100 μg/mL was added per one tube, and the mixture was stood at 37° C. under general oxygen conditions for 1 hr. […] The fixed cells were stained with an anti-sarcomeric α-actinin antibody, and the expression of sarcomeric α-actinin was analyzed with a flow cytometer. […]
On day 20, the embryoid body was recovered in a centrifugal tube, stood until a sediment of the embryoid body was formed, and the supernatant was aspirated while avoiding sucking the embryoid body. […] The fixed cells were stained with an anti-sarcomeric α-actinin antibody, and the sarcomeric α-actinin-positive cell rate was measured by analyzing the expression of sarcomeric α-actinin with a flow cytometer. […]

Structure (SMILES): Nc1ccccc1NC(=O)c1ccc(CNC(=O)OCc2cccnc2)cc1 [Entinostat]
- cardiomyocyte rate (sarcomeric α-actinin-positive cell rate): improved
